What was measured:
[1] = test system: wild type mice after hepatectomy; assay: Liver regeneration after partial liver resection (hepatectomy) in mice; format: in vivo; conditions: about 2/3 hepatectomy, 1 mg/kg body weight intraperitoneally twice daily, 1-7 days
Experimental: Student's t-test in comparing drug-treated group and control group, *P<0.05, ***P<0.001.
8-10 week old wild type mice were anesthetized with intraperitoneal pentobarbital (80 mg/kg body weight). Hepatectomy was performed to remove left rear and intermediate liver lobes, about ⅔ of the entire liver. […] Mice after hepatectomy of 1, 2, 3, 4, 5, 6, or 7 days were sacrificed. Mouse body weight and liver weight are recorded and used to calculate the weight ratio of the liver (FIG. 2a). Liver tissue section used in immunohistochemistry to detect proliferating hepatocytes (of Ki67-positive) percentage.

[2] = test system: DSS-treated wild type mice; assay: Intestinal repair in DSS-induced intestinal injury mouse model; format: in vivo
Experimental: 8-10 week old wild type mice were fed with water containing 2.5% DSS (MW 36-50 kDa, Cat. #160110, MP Biochemical) for 7 days, then switch to conventional drinking water. […] Throughout the experiment, the body weight of mice was weighed every day at a fixed time and calculate the ratio of the weight and the weight before DSS feeding. […] The DAI values were calculated as follows: the integrity of the stool (value 0-3, where 0: full dried fecal pellets; 1: soft particles; 2: loose, wet stool; 3: diarrhea); detection of intestinal bleeding with tolidine (o-tolidine) (value 0-3, where 0: detection reagent was added for 2 minutes, sample no color; 1: detection reagent was added, the sample within 10 seconds from light blue to blue; 2: after adding detection reagents, samples gradually changed from light brown to brown clear blue and a visible color in the feces; 3: after adding detection reagents, samples rapidly becoming brownish blue, significant blood and bleeding in a anus and feces. The body weight change in mice and DAI values were recorded for indicating the degree of intestinal injury repair.

recombinant MST2 = target: T1, recombinant MST2 (Homo sapiens, UniProt Q13188); assay: Inhibition of Mst2 kinase activity, ELISA of Mob1 substrate phosphorylation; format: biochemical; conditions: MST2 IC50, 3.7 nM recombinant MST2; ATP 11.2 gIVI; GST-Mob1a substrate; 30° C. 15 min
T1 sequence (Q13188 1-491): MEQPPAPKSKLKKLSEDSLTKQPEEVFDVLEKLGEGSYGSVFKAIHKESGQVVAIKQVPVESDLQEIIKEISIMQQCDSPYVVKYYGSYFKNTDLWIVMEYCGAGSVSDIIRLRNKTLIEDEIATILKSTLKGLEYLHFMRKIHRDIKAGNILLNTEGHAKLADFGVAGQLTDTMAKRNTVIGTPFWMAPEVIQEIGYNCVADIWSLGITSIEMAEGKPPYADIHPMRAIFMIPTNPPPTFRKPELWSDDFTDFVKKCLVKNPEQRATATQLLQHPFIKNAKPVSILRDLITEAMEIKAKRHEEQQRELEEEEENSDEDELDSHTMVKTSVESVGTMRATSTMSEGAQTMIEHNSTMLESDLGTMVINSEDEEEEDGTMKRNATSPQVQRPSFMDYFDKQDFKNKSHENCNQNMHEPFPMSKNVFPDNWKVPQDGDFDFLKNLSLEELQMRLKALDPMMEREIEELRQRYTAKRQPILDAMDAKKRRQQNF
Experimental: (§1) We adopt a specific ELISA (Enzyme-linked immunosorbent assay) assay for measuring the biochemical activity (FIG. 1).
(§2) Specific methods are as follows:
(§3) 1. The substrate was diluted with purified recombinant GST-Mobla 200 nM in coating buffer, added to 96-well plates (Nalge Nunc International, Denmark), coated for overnight at 4° C., washed nextday three times with rinsing solution;
(§4) a. A kinase reaction buffer;
(§5) c. compound (dissolved in DMSO, containing not more than 1% of the total volume of the reaction);
(§6) Control Group Containing No ATP or Kinase;
(§7) 3. The reaction solution was poured to terminate the kinase reaction, and washed 4 times with rinse solution, 5 minutes each wash;
(§8) 4. Add 200 μL, per well of the blocking solution, shaking for 1 hour at room temperature, washed 4 times with rinsing solution;
(§9) 7. Add TMB chromogenic solution (Biolegend, Cat.B200119, B200120). After the color reaction to a certain extent, add to each well 100 μL, of 2M H2SO4 to terminate the reaction;
(§10) 8. […] Each set of three parallel experiments, the negative control is a solution with a final concentration of 1% DMSO, the control is the reaction system containing no ATP. […] The reagents are as follows: Coating Buffer: 0.1M NaHCO 3, 0.033M Na2CO3, pH 9.5 Rinse solution: 0.05% Tween-20 in PBS Reaction buffer: 40 mM of Hepes-NaOH (pH 7.4), 10 mM of MgCl2, 1 mM of dithiothreitol (DTT), 1 mM of NaF, 1 mM of Na3VO4, 1 mM of β-glycerophosphate Blocking solution: 1% BSA dissolved in PBS Compound Inhibition of Kinase Activity

recombinant Mst1 = target: T2, recombinant Mst1 (Homo sapiens, UniProt Q13043); assay: Inhibition of Mst1 kinase activity, ELISA of Mob1 substrate phosphorylation; format: biochemical; conditions: MST1 IC50, recombinant Mst1 11 nM; ATP 6.7 gIVI; GST-Mob1a substrate; 30° C. 15 min
T2 sequence (Q13043 1-487): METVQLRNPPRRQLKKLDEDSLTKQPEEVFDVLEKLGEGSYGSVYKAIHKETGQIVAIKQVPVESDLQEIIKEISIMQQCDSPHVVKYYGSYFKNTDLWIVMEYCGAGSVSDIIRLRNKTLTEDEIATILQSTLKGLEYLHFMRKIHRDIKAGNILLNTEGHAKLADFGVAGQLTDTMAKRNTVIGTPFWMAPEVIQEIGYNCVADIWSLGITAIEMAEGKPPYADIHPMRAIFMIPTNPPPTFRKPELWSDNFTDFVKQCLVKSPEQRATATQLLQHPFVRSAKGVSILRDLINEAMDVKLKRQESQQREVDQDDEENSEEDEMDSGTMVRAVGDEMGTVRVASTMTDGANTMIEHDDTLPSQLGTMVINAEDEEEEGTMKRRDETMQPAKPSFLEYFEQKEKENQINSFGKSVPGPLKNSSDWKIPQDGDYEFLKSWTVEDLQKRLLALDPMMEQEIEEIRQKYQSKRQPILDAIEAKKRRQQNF
Experimental: as §1, §2, §3, §4, §5, §6, §7, §8, §9, §10

Compound | Liver regeneration after partial liver resection (liver/body weight ratio, Ki67-positive hepatocytes) [1] | Intestinal repair in DSS-induced intestinal injury model ([2]; 2.5% DSS in water 7 days, 1 mg/kg body weight injected once per day) | Body weight of DSS-treated mice ([2]; 2.5% DSS in water 7 days, 1 mg/kg once per day, FIG. 3a) | Intestinal injury clinical symptoms (disease activity index, DAI) ([2]; 2.5% DSS in water 7 days, 1 mg/kg once per day, FIG. 3b) | Yap activity in intestinal epithelial cells (immunohistochemical staining) ([2]; day 8 after DSS water feeding, 1 mg/kg once per day, FIG. 3c) | Epithelial repair and cell proliferation (BrdU and Ki67 positive cells in intestinal tissue) ([2]; day 8 after DSS water feeding, 1 mg/kg once per day, FIG. 3c-e) | IC50 (recombinant MST2) | IC50 (recombinant Mst1)
CN1C(=O)c2sccc2N(C)c2nc(Nc3ccc(S(N)(=O)=O)cc3)ncc21 [II-1] | Effective in Promoting Liver Regeneration | promotes intestinal repair | significantly increase | slow the intestinal injury clinical symptoms | increases Yap activity | promote epithelial repair and cell proliferation | 0.04 µM | 0.14 µM
C=CS(=O)(=O)Nc1ccc(Nc2ncc3c(n2)N(C)c2ccsc2C(=O)N3C)cc1 [II-26] | – | – | – | – | – | – | 0.41 µM | 0.82 µM
CN1C(=O)c2sccc2N(C)c2nc(Nc3cn[nH]c3)ncc21 [II-28] | – | – | – | – | – | – | 0.36 µM | 0.54 µM
CN1C(=O)c2sccc2N(C)c2nc(Nc3cnn(C(=O)CCl)c3)ncc21 [II-30] | – | – | – | – | – | – | 0.44 µM | 0.81 µM
CN1C(=O)c2cccc3c2N(CC3)c2nc(Nc3ccc(NS(C)(=O)=O)cc3)ncc21 [IV-1] | – | – | – | – | – | – | 3.97 µM | 6.07 µM
CN1C(=O)c2cccc3c2N(CC3)c2nc(Nc3ccc(S(N)(=O)=O)cc3)ncc21 [IV-3] | – | – | – | – | – | – | 1.61 µM | 0.43 µM
